Data as given in ChEMBL document CHEMBL6134830, “Naturally inspired chimeric quinolone derivatives to reverse bacterial drug resistance” (Eur J Med Chem, 2025).
Values after ≈ are worked out from the molar mass of the structure shown. Numbered stars: 1 amine (or outer) side, 2 acyl side, 3 side chain; on linkers, the order of the positions; unused ones are H or OH. Peptide text beside a SMILES is read from it. * marks the point of attachment. X1 = O=C(O)c1cn(C2CC2)c2cc(N3CCN(*)CC3)c(F)cc2c1=O; NH(CH2)11CH3 = CCCCCCCCCCCCN*; Suc = O=C(CCC(=O)[*:2])[*:1]

Columns and labels:
[1] = tested on: Staphylococcus aureus; assay: Antimicrobial activity against Staphylococcus aureus ATCC 25923 assessed as inhibition of bacterial growth measured after 20 hrs by CLSI protocol based Muller Hinton broth assay; type: functional
[2] = tested on: Enterococcus gallinarum; assay: Antimicrobial activity against Enterococcus gallinarum ATCC 49573 assessed as inhibition of bacterial growth measured after 20 hrs by CLSI protocol based Muller Hinton broth assay; type: functional
[3] = tested on: Staphylococcus aureus; assay: Antimicrobial activity against Methicillin-resistant Staphylococcus aureus ATCC 43300 assessed as inhibition of bacterial growth measured after 20 hrs by CLSI protocol based Muller Hinton broth assay; type: functional
[4] = tested on: Enterococcus faecalis; assay: Antimicrobial activity against Enterococcus faecalis ATCC 19433 assessed as inhibition of bacterial growth measured after 20 hrs by CLSI protocol based Muller Hinton broth assay; type: functional
[5] = tested on: Escherichia coli; assay: Antimicrobial activity against Escherichia coli ATCC 25922 assessed as inhibition of bacterial growth measured after 20 hrs by CLSI protocol based Muller Hinton broth assay; type: functional
[6] = tested on: Pseudomonas aeruginosa; assay: Antimicrobial activity against Pseudomonas aeruginosa ATCC 27853 assessed as inhibition of bacterial growth measured after 20 hrs by CLSI protocol based Muller Hinton broth assay; type: functional
[7] = tested on: Acinetobacter baumannii; assay: Antimicrobial activity against Acinetobacter baumannii ATCC 19606 assessed as inhibition of bacterial growth measured after 20 hrs by CLSI protocol based Muller Hinton broth assay; type: functional
[8] = Hemolytic activity in Sprague-Dawley rat Red blood cells at 100 ug/ml incubated for 1 hrs by absorbance based analysis; type: toxicity, cell-based; conditions: erythrocyte, dose 100 µg/ml
[9] = tested on: L929; assay: Cytotoxicity against mouse L929 cells assessed as reduction in cell viability at 25 microg/mL incubated for 24 hrs by MTT assay; type: toxicity, cell-based; conditions: l929, 24 h, dose 25 µg/ml

Row | Compound | MIC [1] [µg/mL] | further results
1 | NCCCC[C@H](NC(=O)c1ccc(C(=O)N2CCN(c3cc4c(cc3F)c(=O)c(C(=O)O)cn4C3CC3)CC2)cc1)C(=O)NCc1ccc(-c2ccccc2)cc1 | 50 (≈ 64.7 µM) | 
2 | CCCCCCCCCCCCCCCCNC(=O)[C@H](CCCCN)NC(=O)c1ccc(C(=O)N2CCN(c3cc4c(cc3F)c(=O)c(C(=O)O)cn4C3CC3)CC2)cc1 | > 100 | 
3 | N[C@@H](Cc1c[nH]cn1)C(=O)N1CCN(c2cc3c(cc2F)c(=O)c(C(=O)O)cn3C2CC2)CC1 | ≥ 12.5 | 
4 | CCCCCCCCCCCCNC(=O)[C@H](CCCCN)NC(=O)[C@H](CCCCN)NC(=O)[C@H](CCCCN)NC(=O)CCNC(=O)CCC(=O)N1CCN(c2cc3c(cc2F)c(=O)c(C(=O)O)cn3C2CC2)CC1 | > 50 | 
5 | CCCCCCCCCCCCNC(=O)[C@H](CCCCN)NC(=O)[C@H](CCCCN)NC(=O)[C@H](CCCCN)NC(=O)[C@H](CO)NC(=O)CCC(=O)N1CCN(c2cc3c(cc2F)c(=O)c(C(=O)O)cn3C2CC2)CC1 ({X1-Suc}-SKKK-{NH(CH2)11CH3}) | 6.25 (≈ 5.84 µM) | MIC [2]: 25 µg/mL (≈ 23.4 µM); MIC [3]: 12.5 µg/mL (≈ 11.7 µM); MIC [4]: 25 µg/mL (≈ 23.4 µM); MIC [5]: 25 µg/mL (≈ 23.4 µM); MIC [6]: 50 µg/mL (≈ 46.7 µM); MIC [7]: 12.5 µg/mL (≈ 11.7 µM); Activity [8]: Toxic; Activity [9]: Toxic
6 | CCCCCCCCCNC(=O)[C@H](CCCNC(=N)N)NC(=O)[C@H](CCCNC(=N)N)NC(=O)[C@H](CCCNC(=N)N)NC(=O)c1ccc(C(=O)N2CCN(c3cc4c(cc3F)c(=O)c(C(=O)O)cn4C3CC3)CC2)cc1 | > 50 | 
7 | NCCCC[C@H](NC(=O)c1ccc(C(=O)N2CCN(c3cc4c(cc3F)c(=O)c(C(=O)O)cn4C3CC3)CC2)cc1)C(=O)NCc1c(F)cccc1Cl | 25 (≈ 33.4 µM) | 
8 | NCCCC[C@H](N)C(=O)N1CCN(c2cc3c(cc2F)c(=O)c(C(=O)O)cn3C2CC2)CC1 | ≥ 12.5 | 
9 | CCCCCCCCCCCCNC(=O)[C@H](CCCCN)NC(=O)[C@H](CCCCN)NC(=O)c1ccc(C(=O)N2CCN(c3cc4c(cc3F)c(=O)c(C(=O)O)cn4C3CC3)CC2)cc1 | 25 (≈ 27.7 µM) | 

Second part, led by results:

Row | MIC [1] [µg/mL] | Compound | further results
10 | 6.25 (≈ 6.26 µM) | CCCCCCCCCNC(=O)[C@H](Cc1c[nH]cn1)NC(=O)[C@H](CCCCN)NC(=O)[C@H](CCCCN)NC(=O)c1ccc(C(=O)N2CCN(c3cc4c(cc3F)c(=O)c(C(=O)O)cn4C3CC3)CC2)cc1 | 
11 | 12.5 (≈ 16.3 µM) | NCCCC[C@H](NC(=O)c1ccc(C(=O)N2CCN(c3cc4c(cc3F)c(=O)c(C(=O)O)cn4C3CC3)CC2)cc1)C(=O)NCc1c(Cl)cccc1Cl | 
12 | 6.25 (≈ 6.06 µM) | CCCCCCCCCCCCNC(=O)[C@H](CCCCN)NC(=O)[C@H](CCCCN)NC(=O)[C@H](CCCCN)NC(=O)c1ccc(C(=O)N2CCN(c3cc4c(cc3F)c(=O)c(C(=O)O)cn4C3CC3)CC2)cc1 | 
13 | 6.25 (≈ 9.6 µM) | CCCCCCCCCCCC(=O)N[C@@H](Cc1c[nH]cn1)C(=O)N1CCN(c2cc3c(cc2F)c(=O)c(C(=O)O)cn3C2CC2)CC1 | 
14 | 6.25 (≈ 9.43 µM) | O=C(Cc1ccc(-c2ccccc2)cc1)N[C@@H](Cc1c[nH]cn1)C(=O)N1CCN(c2cc3c(cc2F)c(=O)c(C(=O)O)cn3C2CC2)CC1 | 
15 | 6.25 (≈ 10.2 µM) | CCCCCCCCCC(=O)N[C@@H](CCCCN)C(=O)N1CCN(c2cc3c(cc2F)c(=O)c(C(=O)O)cn3C2CC2)CC1 | 
16 | 6.25 (≈ 7.14 µM) | CCCCCCCCCCNC(=O)[C@H](CCCCN)NC(=O)[C@H](CCCCN)NC(=O)c1ccc(C(=O)N2CCN(c3cc4c(cc3F)c(=O)c(C(=O)O)cn4C3CC3)CC2)cc1 | 
17 | 6.25 (≈ 9.69 µM) | O=C(CC12CC3CC(CC(C3)C1)C2)N[C@@H](Cc1c[nH]cn1)C(=O)N1CCN(c2cc3c(cc2F)c(=O)c(C(=O)O)cn3C2CC2)CC1 | 
18 | 12.5 (≈ 11.1 µM) | CCCCCCCCCCCCNC(=O)[C@H](CCCCN)NC(=O)[C@H](CCCCN)NC(=O)[C@H](CCCCN)NC(=O)COCCOCCNC(=O)CCC(=O)N1CCN(c2cc3c(cc2F)c(=O)c(C(=O)O)cn3C2CC2)CC1 | 
19 | 12.5 (≈ 11.3 µM) | CCCCCCCCCCCCNC(=O)[C@H](CCCCN)NC(=O)[C@H](CCCCN)NC(=O)[C@H](CCCCN)NC(=O)CCCCCCNC(=O)CCC(=O)N1CCN(c2cc3c(cc2F)c(=O)c(C(=O)O)cn3C2CC2)CC1 | 
20 | 6.25 (≈ 8.53 µM) | CCCCCCCCCNC(=O)[C@H](CCCCN)NC(=O)c1ccc(C(=O)N2CCN(c3cc4c(cc3F)c(=O)c(C(=O)O)cn4C3CC3)CC2)cc1 | 
21 | 3.12 (≈ 3.07 µM) | CCCCCCCCCNC(=O)[C@H](CCCNC(=N)N)NC(=O)[C@H](CCCCN)NC(=O)[C@H](CCCCN)NC(=O)c1ccc(C(=O)N2CCN(c3cc4c(cc3F)c(=O)c(C(=O)O)cn4C3CC3)CC2)cc1 | 
